Results taken from patent US20240199604A1, “SUPRAMOLECULAR POLYMER THERAPEUTICS AND DIAGNOSTICS” (The Regents of the University of California, priority 2022, published 2024).

target: T1, YFP-tagged 0N4R-Tau P301S aggregates seeded with 416-AD11A lysate (Homo sapiens, UniProt P10636, P618S); assay: Tau-AD high throughput screening (counter screen) in T24 cells; format: cell-based; conditions: T24 cells seeded with 416-AD11A lysate
T1 construct: C-terminally YFP-tagged full length 0N4R-Tau; expressed in transfected cells
T1 sequence (P10636 1-383 isoform P10636-6 P243S): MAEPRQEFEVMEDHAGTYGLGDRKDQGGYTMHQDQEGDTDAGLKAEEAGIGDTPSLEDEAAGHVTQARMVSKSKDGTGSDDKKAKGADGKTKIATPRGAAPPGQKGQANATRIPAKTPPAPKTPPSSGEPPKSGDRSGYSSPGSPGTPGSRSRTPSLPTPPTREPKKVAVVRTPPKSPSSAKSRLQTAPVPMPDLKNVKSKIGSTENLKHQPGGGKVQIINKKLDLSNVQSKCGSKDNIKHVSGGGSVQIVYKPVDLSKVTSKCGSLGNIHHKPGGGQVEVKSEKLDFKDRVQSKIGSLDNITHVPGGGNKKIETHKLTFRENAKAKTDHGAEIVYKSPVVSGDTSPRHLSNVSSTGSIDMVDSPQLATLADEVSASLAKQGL
Procedure: A fragment of the Middle Tempral Gyrus (MTG) from Alzheimer's Disease (AD) patient 2217 was resuspended in 9 volumes of PBS (ml/g of brain) and homogenized 3×12 seconds using a probe homogenizer (Thomas Scientific) with disposable Omni Tip plastic homogenizing probes (Thomas Scinetific Cat No 3409Y77) to generate a 10% brain homogenate (10% AD11-BH). The 10% AD11-BH was clarified of insoluble debris by centrifugation at 800×g for 5 minutes. The resulting supernatant was collected and the protein concentration of this clarified BH (AD11-CBH) was determined by bicinchoninic acid assay (BCA) (Thermo Fisher Cat No. 23227). HEK293 cells stably expressing a C-terminally Clover-tagged truncated 4R-Tau^243-382 transgene containing the P301L and V337M mutations and a C-terminally Ruby-tagged truncated 3R-Tau^243-382 transgene containing the L266V and V337M mutations (128/139 cells) were transfected with the AD11-CBH using lipofectamine 2000 (LF2K) (Thermo Fisher Cat No. 11668500). Briefly, 0.32 μl of LF2K were diluted in 5 μl Opti-MEM (Thermo Scientific Cat No 31985070) per well of a 384-well plate and incubated for 5 min at room temperature (RT). This mixture was added to 0.32 μg of AD11-CBH diluted in 5 μl of PBS per well of a 384-well plate and vortex briefly. The transfection mixture was incubated at room temperature for 90 min. The transfection complexes were subsequently added to a single well of a 384-well plate containing 3500 128/139 cells. After 3 days the cells were harvested, counted and plated at a density of 1 cell/well in a 96-well plate. A clonal cell line containing Clover and Ruby positive Tau aggregates was selected and termed 416-AD11A cells. Following the expansion of these 416-AD11A cells, a cell lysate was prepared by freeze/thaw. The cells from a confluent T175 flask were harvested in 1 ml of PBS containing 1× protease inhibitor cocktail by scraping. The cell suspension was subjected to 4 cycles of freezing in liquid nitrogen for 5 minutes followed by thawing at 37° C. for 5 minutes. The resulting cell lysate was centrifuged at 2000 RPM for 10 minutes to remove the cell debris and the protein concentration of the resulting 416-AD11A lysate was determined by BCA assay and aliquots frozen for future use.
HEK293 cells stably expressing C-terminally YFP-tagged full length 0N4R-Tau carrying a P301S mutation (T24 cells) are plated at a density of 4000 cells per well of a 384-well black walled, clear bottom plate (Greiner Cat No 5678-1091Q) in 60 μl of complete DMEM (DMEM (Corning Cat No 10-013-CV), 10% FBS (VWR Cat No 97068-085, 0.5% Penicilin/streptomycin (Gibco Cat No 15140-122)) containing 0.1 μg/ml Hoechst Dye (Thermo Scientific Cat No H3570). Transfection complexes are prepared by diluting 0.15 μg of 416-AD11A lysate or HEK lysate in 5 μl of PBS per well to be transfected and 0.15 μl of Lipofectamine 2000 (LF2K) (ThermoFisher Cat No 11668500) in 5 μl of Opti-MEM per well to be transfected in separate tubes. The pre-diluted 416-AD11A or HEK lysates and LF2K are subsequently mixed and allowed to incubate for 90 minutes at RT. A 10 μl aliquot of the 416-AD11A or HEK transfection complexes is added to the appropriate wells of the 384-well plate containing the T24 cells using the Bravo liquid handling platform (Agilent). Wells A23-P24 of the 384-well plate are transfected with HEK lysate to act as a reference point for spontaneous aggregation of 0N4R^P301S and for transfection related toxicity. The dilution of test compounds is performed using the Bravo liquid handling platform (Agilent). The control is DMSO in the absence of any test compound. Briefly, 1 μl of each test compound (5 mM stock) in the 384-well test plate was transferred to a 384-well plate (Greiner Cat No 781280) containing 61.5 μl of complete DMEM to generate a working stock of compounds at 80 μM. […]

Compared with CNC(=O)c1ncc2c(-c3ccc(F)cc3)nn(CC3CCCCC3)c2n1 [Compound 258], CC(=O)Nc1ncc2c(-c3ccccc3)nn(CC3CCCCC3)c2n1 [Compound 280] is lower in “AD Tau Aggregates (% control)” value: 110 % control for the first, 90 % control for the second.

Compared with CNC(=O)c1ncc2c(-c3cccc4c3OC(F)(F)O4)nn(Cc3ccccc3)c2n1 [Compound 254], CNC(=O)c1ncc2c(-c3ccccc3)nn(Cc3ccccc3)c2n1 [Compound 248] is lower in “AD Tau Aggregates (% control)” value: 100 % control for the first, 95 % control for the second.

Going from CC(=O)Nc1ncc2c(-c3ccccc3)nn(C(C)c3ccccc3)c2n1 (stereo not drawn) [Compound 265] to COC(=O)Nc1ncc2c(-c3ccccc3)nn(-c3ccccc3)c2n1 [Compound 274], the “AD Tau Aggregates (% control)” value falls from 110 % control to 94 % control.

Compared with CC(=O)Nc1ncc2c(-c3ccccc3)nn(Cc3cncc(F)c3)c2n1 [Compound 267], CC(=O)Nc1ncc2c(-c3ccccc3)nn(Cc3ccncc3)c2n1 [Compound 279] is higher in “AD Tau Aggregates (% control)” value: 91 % control for the first, 92 % control for the second.

First: CNC(=O)c1ncc2c(-c3cc4c(cnn4C)cc3F)nn(Cc3ccccc3)c2n1 [Compound 253]
Second: CNC(=O)c1ncc2c(-c3ccc(F)cc3)nn(Cc3cccc(F)c3)c2n1 [Compound 260]
The “AD Tau Aggregates (% control)” value of the first is higher: 96 % control for the first, 95 % control for the second.

Going from O=c1nc2c(ccn2C(F)(F)F)cn1-c1nc(N2Cc3ccccc3C2)oc1-c1ccc(F)cc1 [Compound 242] to Cc1ccnn1-c1nc(-n2cc3ccn(C(F)(F)F)c3nc2=O)c(-c2ccc(F)cc2)o1 [Compound 240], the “AD Tau Aggregates (% control)” value falls from 99 % control to 95 % control.

First: CC(=O)Nc1ncc2c(-c3ccccc3C)nn(Cc3ccccc3)c2n1 [Compound 266]
Second: CCC(=O)Nc1ncc2c(-c3ccccc3)nn(Cc3ccc(OC)cc3)c2n1 [Compound 269]
The “AD Tau Aggregates (% control)” value of the first is lower: 98 % control for the first, 100 % control for the second.

Compared with CNC(=O)c1ncc2c(-c3ccc(F)cc3)nn(Cc3ccc(F)cc3)c2n1 [Compound 261], CNC(=O)c1ncc2c(-c3ccc(F)cc3)nn(Cc3ccnc(F)c3)c2n1 [Compound 259] is higher in “AD Tau Aggregates (% control)” value: 87 % control for the first, 99 % control for the second.

Going from Cc1cc(-c2nc(-n3cc4ccn(C5CC5)c4nc3=O)c(-c3ccc(F)c(F)c3)o2)ncc1F [Compound 234] to Cc1ccn(-c2nc(-n3cc4ccn(C(F)(F)F)c4nc3=O)c(-c3ccc(F)cc3)o2)n1 [Compound 241], the “AD Tau Aggregates (% control)” value rises from 85 % control to 98 % control.

Going from CCc1ccccc1-c1nn(-c2ccc(F)cc2)c2nc(C(=O)NC)ncc12 [Compound 245] to CNC(=O)c1ncc2c(-c3ccccc3Cl)nn(-c3ccc(F)cc3)c2n1 [Compound 244], the “AD Tau Aggregates (% control)” value falls from 120 % control to 100 % control.

For CNC(=O)c1ncc2c(-c3ccccc3)nn(-c3ccc(F)cc3)c2n1 [Compound 246], the “AD Tau Aggregates (% control)” value was 120 % control.

system: not listed separately; assay: Parallel Artificial Membrane Permeability Assay (PAMPA); format: in vitro ADME; conditions: 200 uM test compound, 4 hr
Procedure: Parallel Artificial Membrane Permeability Assay (PAMPA). 5 uL of 1% lecithin (VWR 0579) dissolved in n-dodecane (Sigma Aldrich D221104) was applied to each well of a MultiScreen IP PAMPA filter plate (Millipore MAIPSWU10) and allowed to equilibrate for 5 minutes. 300 uL of PBS was added to the acceptor plate and 150 uL of 200 uM test compound dissolved in PBS and 30% ethanol was added to the donor wells before incubating the donor plate in the acceptor plate for 4 hr at 500 rpm. 100 uL was sampled from the donor and acceptor wells and the concentrations were measured by liquid chromatography-mass spectrometry (SCIEX 4500) or UV-VIS plate reader (BMG).

For CNC(=O)c1ncc2c(-c3cc(F)cc(F)c3)nn(Cc3ccccc3)c2n1 [Compound 252], the “PAMPA: P_app pH 7.4” value was over 50 ×10e−6 cm/sec.
In the case of CCn1nc(-c2ccccc2)c2cnc(NC(C)=O)nc21 [Compound 277], the “PAMPA: P_app pH 7.4” value is reported as over 50 ×10e−6 cm/sec.
For CC(=O)Nc1ncc2c(-c3ccccc3C)nn(Cc3ccccc3)c2n1 [Compound 266], the “PAMPA: P_app pH 7.4” value was over 50 ×10e−6 cm/sec.
In the case of CNC(=O)c1ncc2c(-c3ccc(F)cc3)nn(Cc3ccccc3)c2n1 [Compound 250], the “PAMPA: P_app pH 7.4” value is reported as over 50 ×10e−6 cm/sec.
For CC(=O)Nc1ncc2c(-c3ccccc3)nn(Cc3ccccn3)c2n1 [Compound 278], the “PAMPA: P_app pH 7.4” value was over 50 ×10e−6 cm/sec.
In the case of CNc1nc(=O)n(-c2nc(-c3cccc(Cl)c3)oc2-c2ccc(Cl)c(F)c2)cc1F [Compound 1], the “PAMPA: P_app pH 7.4” value is reported as over 50.0 ×10e−6 cm/sec.
In the case of CCc1ccccc1-c1nn(-c2ccc(F)cc2)c2nc(C(=O)NC)ncc12 [Compound 245], the “PAMPA: P_app pH 7.4” value is reported as over 50 ×10e−6 cm/sec.
With CNC(=O)c1ncc2c(-c3ccccc3)nn(-c3ccc(F)cc3)c2n1 [Compound 246] the “PAMPA: P_app pH 7.4” value was over 50 ×10e−6 cm/sec.

With CC(=O)Nc1ncc2c(-c3ccccc3)nn(CC3CCCCC3)c2n1 [Compound 280] the “PAMPA: P_app pH 7.4” value was 19.5 ×10e−6 cm/sec.
